Source: ChEMBL document CHEMBL3232855, “The discovery of N-((2H-tetrazol-5-yl)methyl)-4-((R)-1-((5r,8R)-8-(tert-butyl)-3-(3,5-dichlorophenyl)-2-oxo-1,4-diazaspiro[4.5]dec-3-en-1-yl)-4,4-dimethylpentyl)benzamide (SCH 900822): a potent and selective glucagon receptor antagonist” (J Med Chem, 2014)

Tests used:
[1] = molecular target: T1, Glucagon receptor (Homo sapiens, UniProt P47871); test: Antagonist activity at human GCGR expressed in CHO cells assessed as inhibition of glucagon-stimulated cAMP production preincubated for 30 mins followed by glucagon induction measured after 45 mins by LANCE assay; assay type: functional, cell-based
T1 sequence (P47871 whole entry): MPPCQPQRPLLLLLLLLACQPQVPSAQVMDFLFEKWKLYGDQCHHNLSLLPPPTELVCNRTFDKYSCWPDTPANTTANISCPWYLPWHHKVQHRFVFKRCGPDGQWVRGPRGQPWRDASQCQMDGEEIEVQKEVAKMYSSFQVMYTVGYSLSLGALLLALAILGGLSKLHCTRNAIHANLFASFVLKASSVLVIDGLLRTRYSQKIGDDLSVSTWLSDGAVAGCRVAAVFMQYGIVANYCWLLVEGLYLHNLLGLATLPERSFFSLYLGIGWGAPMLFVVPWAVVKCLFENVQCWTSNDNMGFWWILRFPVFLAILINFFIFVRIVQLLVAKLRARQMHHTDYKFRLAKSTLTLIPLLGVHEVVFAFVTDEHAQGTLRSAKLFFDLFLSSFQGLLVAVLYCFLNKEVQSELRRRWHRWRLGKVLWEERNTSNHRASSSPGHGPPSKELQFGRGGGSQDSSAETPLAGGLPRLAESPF

[2] = molecular target: T1, Glucagon receptor; test: biochemical; assay type: cell-based, CHO
Description: Displacement of [125I]-glucagon from recombinant human GCGR expressed in CHO cells after 60 mins by scintillation counting analysis

[3] = molecular target: Glucagon-like peptide 1 receptor (Homo sapiens, UniProt P43220); test: Antagonist activity at human GLP-1R expressed in CHO cells assessed as inhibition of GLP-1-stimulated cAMP production preincubated for 30 mins followed by GLP-1 induction measured after 45 mins by LANCE assay; assay type: functional, cell-based
Chain of Glucagon-like peptide 1 receptor (P43220 whole entry): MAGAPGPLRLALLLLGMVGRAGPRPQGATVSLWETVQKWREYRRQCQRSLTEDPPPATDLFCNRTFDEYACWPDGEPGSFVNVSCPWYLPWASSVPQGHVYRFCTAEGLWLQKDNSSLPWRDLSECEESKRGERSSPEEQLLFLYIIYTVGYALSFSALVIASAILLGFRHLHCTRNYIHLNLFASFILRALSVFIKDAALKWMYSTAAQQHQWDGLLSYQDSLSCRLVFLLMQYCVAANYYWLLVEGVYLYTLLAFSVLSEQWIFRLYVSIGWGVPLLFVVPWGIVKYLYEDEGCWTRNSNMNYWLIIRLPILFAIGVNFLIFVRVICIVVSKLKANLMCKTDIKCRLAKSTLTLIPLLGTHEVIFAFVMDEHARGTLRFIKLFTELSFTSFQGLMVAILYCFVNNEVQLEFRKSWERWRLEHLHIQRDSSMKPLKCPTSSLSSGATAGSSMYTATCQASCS

[4] = molecular target: Glucagon receptor (Mus musculus, UniProt Q61606); assay type: cell membranes, Liver, Membrane
Chain of Glucagon receptor (Mus musculus, UniProt Q61606) (Q61606 whole entry): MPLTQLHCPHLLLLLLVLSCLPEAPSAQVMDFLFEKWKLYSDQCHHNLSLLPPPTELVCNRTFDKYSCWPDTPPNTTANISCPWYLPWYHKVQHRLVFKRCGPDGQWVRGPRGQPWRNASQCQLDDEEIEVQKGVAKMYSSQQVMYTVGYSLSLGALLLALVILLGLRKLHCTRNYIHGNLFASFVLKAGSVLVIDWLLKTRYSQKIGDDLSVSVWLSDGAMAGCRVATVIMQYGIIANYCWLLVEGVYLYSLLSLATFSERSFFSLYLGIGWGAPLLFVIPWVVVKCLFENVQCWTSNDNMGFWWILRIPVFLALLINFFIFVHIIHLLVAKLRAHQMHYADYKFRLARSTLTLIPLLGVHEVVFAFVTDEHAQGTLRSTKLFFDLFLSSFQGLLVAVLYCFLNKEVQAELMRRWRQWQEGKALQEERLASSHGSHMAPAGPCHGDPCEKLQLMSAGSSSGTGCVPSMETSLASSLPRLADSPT
Description: Displacement of [125I]-glucagon from GCGR in mouse liver membranes after 60 mins by scintillation counting analysis

**Q.** With `CC[C@H]1CC[C@]2(CC1)N=C(c1cc(Cl)cc(Cl)c1)C(=O)N2[C@H](CCC(C)(C)C)c1ccc(C(=O)NCc2nn[nH]n2)cc1` as the molecule, how does the IC50 [1] read?
**A.** 66 nM

**Q.** And the IC50 [2]?
**A.** 44 nM

**Q.** And the IC50 [3]?
**A.** > 10000 nM

**Q.** What does the source list for `CC(CN1C(=O)C(c2cc(Cl)cc(Cl)c2)=N[C@]12CC[C@@H](C(C)(C)C)CC2)c1ccc(C(=O)NCCC(=O)O)cc1` (stereo not given in full)?
**A.** IC50 [1]: 260 nM; IC50 [2]: 890 nM; IC50 [4]: 3300 nM; IC50 [3]: 7300 nM

**Q.** With `Cc1cccc(C2=N[C@]3(CC[C@@H](C(C)(C)C)CC3)N([C@H](C)c3ccc(C(=O)NCCC(=O)O)cc3)C2=O)c1` as the molecule, how does the IC50 [1] read?
**A.** 490 nM

**Q.** And the IC50 [2]?
**A.** 150 nM

**Q.** And the IC50 [4]?
**A.** 1700 nM

**Q.** What about the IC50 [3] of the same molecule?
**A.** > 10000 nM

**Q.** Which IC50 [1] does the source give for `CC(C)[C@H](c1ccc(C(=O)NCc2nn[nH]n2)cc1)N1C(=O)C(c2cc(Cl)cc(Cl)c2)=N[C@]12CC[C@@H](C(C)(C)C)CC2` here?
**A.** 2200 nM

**Q.** `CC(C)(C)[C@H]1CC[C@]2(CC1)N=C(c1cc(Cl)cc(Cl)c1)C(=O)N2CCc1ccc(C(=O)NCCC(=O)O)cc1` was tested. Which IC50 [1] did it give?
**A.** 170 nM

**Q.** What about the IC50 [2] of the same molecule?
**A.** 170 nM

**Q.** What about the IC50 [4] of the same molecule?
**A.** 1500 nM

**Q.** And the IC50 [3]?
**A.** > 10000 nM

**Q.** What does the source list for `CC(Cc1ccc(C(=O)NCCC(=O)O)cc1)N1C(=O)C(c2cc(Cl)cc(Cl)c2)=N[C@]12CC[C@@H](C(C)(C)C)CC2` (stereo not given in full)?
**A.** IC50 [1]: 140 nM; IC50 [2]: 190 nM; IC50 [4]: 1300 nM; IC50 [3]: 3100 nM

**Q.** For `CC(C)(C)CC[C@H](c1ccc(C(=O)NC[C@@H](O)C(=O)O)cc1)N1C(=O)C(c2cc(Cl)cc(Cl)c2)=N[C@]12CC[C@@H](C(C)(C)C)CC2` (mixture of isomers), which IC50 [1] is on record?
**A.** 400 nM

**Q.** And the IC50 [2]?
**A.** 149 nM

**Q.** And the IC50 [3]?
**A.** > 10000 nM

**Q.** Which results are given for `CC[C@H](c1ccc(C(=O)NCc2nn[nH]n2)cc1)N1C(=O)C(c2cc(Cl)cc(Cl)c2)=N[C@]12CC[C@@H](C(C)(C)C)CC2`?
**A.** IC50 [1]: 270 nM; IC50 [2]: 82 nM; IC50 [4]: 370 nM; IC50 [3]: > 10000 nM

**Q.** For `CC(C)(C)CC[C@H](c1ccc(C(=O)NCc2nn[nH]n2)cc1)N1C(=O)C(c2cc(Cl)cc(Cl)c2)=NC12CCCCC2`, which IC50 [1] is on record?
**A.** 510 nM

**Q.** What about the IC50 [2] of the same molecule?
**A.** 195 nM

**Q.** And the IC50 [3]?
**A.** > 10000 nM

**Q.** What does the source list for `C[C@H](c1ccc(C(=O)NCCC(=O)O)cc1)N1C(=O)C(c2ccccc2F)=N[C@]12CC[C@@H](C(C)(C)C)CC2`?
**A.** IC50 [1]: 350 nM; IC50 [2]: 1100 nM; IC50 [4]: > 10000 nM; IC50 [3]: > 10000 nM

**Q.** For `CC(C)(C)[C@H]1CC[C@]2(CC1)N=C(c1cc(Cl)cc(Cl)c1)C(=O)N2[C@H](CCC(F)(F)F)c1ccc(C(=O)NCc2nn[nH]n2)cc1`, which IC50 [1] is on record?
**A.** 370 nM

**Q.** What about the IC50 [2] of the same molecule?
**A.** 4 nM

**Q.** And the IC50 [4]?
**A.** 110 nM

**Q.** What about the IC50 [3] of the same molecule?
**A.** > 10000 nM

**Q.** For `C[C@H](c1ccc(C(=O)NCCC(=O)O)cc1)N1C(=O)C(c2ccc(Cl)c(Cl)c2)=N[C@]12CC[C@@H](C(C)(C)C)CC2`, which IC50 [1] is on record?
**A.** 550 nM

**Q.** What about the IC50 [2] of the same molecule?
**A.** 95 nM

**Q.** What about the IC50 [4] of the same molecule?
**A.** 3200 nM

**Q.** What about the IC50 [3] of the same molecule?
**A.** 4400 nM

**Q.** What does the source list for `C[C@H](c1ccc(C(=O)NCCC(=O)O)cc1)N1C(=O)C(c2ccc(OC(F)(F)F)cc2)=N[C@]12CC[C@@H](C(C)(C)C)CC2`?
**A.** IC50 [1]: 1100 nM; IC50 [2]: 67 nM; IC50 [4]: 8000 nM; IC50 [3]: > 10000 nM

**Q.** Which results are given for `C[C@H](c1ccc(C(=O)NCCC(=O)O)cc1)N1C(=O)C(c2cccc(Cl)c2)=N[C@]12CC[C@@H](C(C)(C)C)CC2`?
**A.** IC50 [1]: 480 nM; IC50 [2]: 130 nM; IC50 [4]: 3300 nM; IC50 [3]: 3900 nM

**Q.** How did the IC50 [1] turn out when `CC(C)(C)[C@H]1CC[C@]2(CC1)N=C(c1cc(Cl)cc(Cl)c1)C(=O)N2[C@@H](c1ccc(C(=O)NCc2nn[nH]n2)cc1)C1CC1` was run?
**A.** 540 nM

**Q.** What about the IC50 [2] of the same molecule?
**A.** 72 nM

**Q.** And the IC50 [4]?
**A.** 750 nM

**Q.** And the IC50 [3]?
**A.** > 10000 nM

**Q.** Which IC50 [1] does the source give for `C[C@H](c1ccc(C(=O)NCCC(=O)O)cc1)N1C(=O)C(c2cc(Cl)ccc2F)=N[C@]12CC[C@@H](C(C)(C)C)CC2` here?
**A.** 750 nM

**Q.** What about the IC50 [2] of the same molecule?
**A.** 340 nM

**Q.** And the IC50 [4]?
**A.** 4600 nM

**Q.** What about the IC50 [3] of the same molecule?
**A.** > 10000 nM

**Q.** Which IC50 [1] does the source give for `CC(C)(C)CC[C@H](c1ccc(C(=O)NCc2nn[nH]n2)cc1)N1C(=O)C(c2cc(F)cc(Cl)c2)=N[C@]12CC[C@@H](C(C)(C)C)CC2` here?
**A.** 42 nM

**Q.** And the IC50 [2]?
**A.** 10 nM

**Q.** And the IC50 [4]?
**A.** 160 nM

**Q.** And the IC50 [3]?
**A.** > 10000 nM

**Q.** With `CCCC[C@H](c1ccc(C(=O)NCc2nn[nH]n2)cc1)N1C(=O)C(c2cc(Cl)cc(Cl)c2)=N[C@]12CC[C@@H](C(C)(C)C)CC2` as the molecule, how does the IC50 [1] read?
**A.** 380 nM

**Q.** What about the IC50 [2] of the same molecule?
**A.** 23 nM

**Q.** What about the IC50 [4] of the same molecule?
**A.** 420 nM

**Q.** And the IC50 [3]?
**A.** > 10000 nM

**Q.** With `C[C@H](c1ccc(C(=O)NCCC(=O)O)cc1)N1C(=O)C(c2cccc(F)c2)=N[C@]12CC[C@@H](C(C)(C)C)CC2` as the molecule, how does the IC50 [1] read?
**A.** 560 nM

**Q.** What about the IC50 [2] of the same molecule?
**A.** 490 nM

**Q.** What about the IC50 [4] of the same molecule?
**A.** 4400 nM

**Q.** What about the IC50 [3] of the same molecule?
**A.** > 10000 nM

**Q.** `CC(C)(C)CC[C@H](c1ccc(C(=O)NCc2nn[nH]n2)cc1)N1C(=O)C(c2cc(Cl)cc(Cl)c2)=N[C@]12CC[C@@H](C)CC2` was tested. Which IC50 [1] did it give?
**A.** 260 nM

**Q.** And the IC50 [2]?
**A.** 36 nM

**Q.** What about the IC50 [3] of the same molecule?
**A.** > 10000 nM

**Q.** With `C[C@H](c1ccc(C(=O)Nc2nnn[nH]2)cc1)N1C(=O)C(c2cc(Cl)cc(Cl)c2)=N[C@]12CC[C@@H](C(C)(C)C)CC2` as the molecule, how does the IC50 [1] read?
**A.** 750 nM

**Q.** And the IC50 [2]?
**A.** 470 nM

**Q.** What about the IC50 [4] of the same molecule?
**A.** > 10000 nM

**Q.** And the IC50 [3]?
**A.** 800 nM

**Q.** For `COc1ccc(C2=N[C@]3(CC[C@@H](C(C)(C)C)CC3)N([C@H](CCC(C)(C)C)c3ccc(C(=O)NCc4nn[nH]n4)cc3)C2=O)cc1`, which IC50 [1] is on record?
**A.** 360 nM

**Q.** And the IC50 [2]?
**A.** 26 nM

**Q.** And the IC50 [3]?
**A.** > 10000 nM
